According to patent US4267187A, “Aminopropanol derivatives of 2-(0-hydroxyphenyl)-pyrrole” (BASF Aktiengesellschaft, priority 1978, dated 1981):
Counter-ions that a name gives are not always drawn.

Legend:
[1] = test system: isoproterenol-induced tachycardia; experiment: β1-sympatholytic action: inhibition of isoproterenol-induced tachycardia in pithed rats; type: in vivo, pithed rats (Sprague-Dawley, Rattus norvegicus); conditions: for β1-sympatholytic action, R.A. (relative activity): Propranolol = 1.00, from ED 50%, intravenous; for β1-sympatholytic activity, times greater than that of propranolol: versus propranolol
Procedure: The β-sympatholytic action was tested on rats, in comparison with the known β-sympatholytic agent propanolol (1-(isopropylamino)-1-naphthyloxy-2-propanol.HCl). The following methods were used for this purpose:
1. β1 -sympatholytic action
^1 Inhibition of isoproterenolinduced tachycardia in pithed rats.
Intravenous administration
^2 Dose which inhibits the isoproterenolinduced tachycardia by 50%

[2] = test system: NMRI mice; experiment: Acute toxicity in mice, intraperitoneal; conditions: deaths within 24 hours, Probit analysis
[3] = for Therapeutic range, relative: in vivo; for Therapeutic range (LD 50/ED 50%), times greater than that of propranolol: versus propranolol

SMILES | β1-sympatholytic action, R.A. (relative activity) ([1]; pithed rats) | ED50 ([1]; Rattus norvegicus, iv, 5 min, read-out: β1-sympatholytic action, ED 50% (dose which inhibits the isoproterenol-induced tachycardia by 50%)) [mg/kg] | Acute toxicity LD 50 [2] | β1-sympatholytic activity, times greater than that of propranolol [1] [times] | Therapeutic range, relative [3] | Therapeutic range (LD 50/ED 50%), times greater than that of propranolol [3] [times] | increase in pulse rate, on average ([1]; isoproterenol 0.1 μg/kg intravenously, pithed rats) [%]
CC(C)NCC(O)COc1cccc2ccccc12 (racemic) [Propranolol, 1-(isopropylamino)-1-naphthyloxy-2-propanol.HCl, reference compound] | 1.00 | 0.0127 | – | – | – | – | –
CC(C)(C)NCC(O)COc1ccccc1-c1ccc[nH]1 (stereo not drawn) [Example 1, 2-[2-(3-tert.-butylamino-2-hydroxypropoxy)-phenyl]-pyrrole fumarate] | 5.59 | – | 165 | 5.6 | 6.91 | 7 | –
CC(C)NCC(O)COc1ccccc1-c1ccc[nH]1 (stereo not drawn) [Example 2, 2-[2-(3-isopropylamino-2-hydroxypropoxy)-phenyl]-pyrrole fumarate hemihydrate] | 3.18 | – | – | 3.2 | 4.07 | 4 | –
CC(C)NCC(O)c1ccc(O)c(O)c1 (stereo not drawn) [Isoproterenol, reference compound] | – | – | – | – | – | – | 45
